Laboratory results as given in patent US20110118288A1, “PHARMACEUTICAL COMPOSITION FOR TREATING HYPERTENSION AND METABOLIC SYNDROME AND USE THEREOF” (priority 2008, published 2011).

Tests used:
[1] = tested on: spontaneously hypertensive rats; test: Cardiac hypertrophy (left ventricular weight/body weight) in spontaneously hypertensive rats; type: in vivo, rat; details: SHR, after ten weeks of intragastric administration once every day
Experimental: Each group was given intragastric administration once every day for ten weeks. During the experiment, the diet, survival status and behaviors of the animals were recorded, and the animals were weighed once every day and the doses of administration were adjusted according to the body weights. Animals were sacrificed after ten weeks, and their hearts were taken out to determine the weights of left ventricles and calculate left ventricular indexes. After being sacrificed with 10% potassium chloride (2 mmol/L, 1 ml/rat), the rats were weighed. Heart was taken out and aortas and connective tissues outside of the heart were removed. The heart was cleaned by washing, dried with a filter paper, and weighed. The left ventricular was weighed after the atria were removed, and a ratio of left ventricular weight to body weight was calculated.

[2] = tested on: spontaneously hypertensive rats; test: Carotid intima-media thickness in spontaneously hypertensive rats; type: in vivo, rat; details: SHR carotid artery, high sugar and high fat diets, intragastric once every day for six months
Experimental: Each group was given intragastric administration once every day and fed with high sugar and high fat diets for six months. During the experiment, the diet, survival status and behaviors of the animals were recorded, and the animals were weighed once every day and the doses of administration were adjusted according to the body weights. After the animal was anesthetized and fixed, Even's blue (60 mg/kg) dye was injected via a femoral artery. After 30 minutes, myocardial perfusion was performed with 0.9% physiological saline as a perfusate at a perfusion pressure of 13.3 kPa until the effluent became clear. Then, 4% paraformaldehyde in physiological saline was perfused for 10 minutes for in situ fixation (the perfusion pressure was the same as above). The section of Even's blue-stained carotid artery was taken and further fixed with formalin solution, and three parts, i.e. the front, the middle and the rear parts, respectively, were sampled and embedded in paraffin, and then sliced discontinuously to obtain 8 to 10 layers, which were stained with HE. Three vascular sections were randomly selected and input into a computer image processing system so as to perform a computerized image measurement, thereby calculating the intima-media thickness.

[3] = tested on: spontaneously hypertensive rats; test: Tail arterial blood pressure of conscious spontaneously hypertensive rats; type: in vivo, rat; details: for blood pressure, after treatment, eighth week / blood pressure, after treatment, fifth week / blood pressure, after treatment, first week / blood pressure, after treatment, third week: SHR, intragastric once every day, 2-5 h after administration; for blood pressure, before treatment: spontaneously hypertensive rats, baseline before treatment, n = 11
Experimental: Model control group: intragastric administration of same volume of physiological saline; P group: 0.5 mg/(kg·d) of pioglitazone; L group: 5 mg/(kg·d) of losartan; R group: 0.5 mg/(kg·d) of rosuvastatin calcium; L+R group: 5 mg/(kg·d) of losartan+0.5 mg/(kg·d) of rosuvastatin calcium; P+R group: 0.5 mg/(kg·d) of pioglitazone+0.5 mg/(kg·d) of rosuvastatin calcium; L+P group: 5 mg/(kg·d) of losartan+0.5 mg/(kg·d) of pioglitazone; […] Each group was given intragastric administration once every day for ten weeks. During the experiment, the diet, survival status and behaviors of the animals were recorded, and the animals were weighed once every day and the doses of administration were adjusted according to the body weights. Animals were sacrificed after ten weeks, and their hearts were taken out to determine the weights of left ventricles and calculate left ventricular indexes. Temperature was controlled between 18° C. and 22° C., humidity was controlled between 45% and 65%, and indoor natural light was used. Tail arterial blood pressure of a conscious rat was measured with Intelligent Non-invasive Blood Pressure Monitor BP-2006A (provided by Beijing Softron Co., Ltd.). Blood pressures were measured five times between two and five hours after intragastric administration in the first week, the third week, the fifth week and the eighth week, respectively. The average value of the blood pressures was used as the blood pressure of the sample.

[4] = tested on: metabolic syndrome patients; test: Treatment of patients suffered from metabolic syndrome (FBG, FINS, HbAlC, TC/HDLC, Fg); type: in vivo, human
Text: Sixth-four metabolic syndrome patients were selected from those received treatment in Linyi People's Hospital from March 2007 to June 2008, and randomly divided into a control group and an experimental group. Control group: twenty-one males and eleven females, whose ages were between 61 and 72 and whose body mass indexes (BMI) were between 26 and 30; Experimental group: nineteen males and thirteen females, whose ages were between 62 and 70 and whose body mass indexes (BMI) were between 25.5 and 31; Before the treatment, all patients were subjected to blood lipids (including total cholesterol (TC), high-density lipid cholesterol (HDLC)) analysis, and detection of glycated hemoglobin (HbAlC), fasting blood glucose (FBG), fasting insulin (FINS) and fibrinogen (Fg). […] After eight weeks of continuous treatment, all of the above parameters were re-determined, in which blood glucose was determined with hexokinase method, blood lipid was determined with esterase method, fibrinogen was determined with coagulation method and chromogenic substrate assay, HbAlC was determined with chromatography, and fasting insulin was determined with chemiluminescence immunoassay. Statistical analysis: SPSS software was employed, and test of significance was performed by using a paired sample t test.

[5] = tested on: spontaneously hypertensive rats; test: Urinary microalbumin (bromophenol blue absorbance) in spontaneously hypertensive rats; type: in vivo, rat; details: SHR, high sugar and high fat diets, intragastric once every day, twelve-hour overnight urine; time point not given in table
Experimental: Model control group: intragastric administration of same volume of physiological saline; […] L group: 5 mg/(kg·d) of losartan; R group: 1 mg/(kg·d) of rosuvastatin group; L+R group: 5 mg/(kg·d) of losartan+1 mg/(kg·d) of rosuvastatin calcium; P+R group: 1.5 mg/(kg·d) of pioglitazone+1 mg/(kg·d) of rosuvastatin calcium; L+P group: 5 mg/(kg·d) of losartan+1.5 mg/(kg·d) of pioglitazone; […] Each group was given intragastric administration once every day and fed with high sugar and high fat diets for six months. During the experiment, the diet, survival status and behaviors of the animals were recorded, and the animals were weighed once every day and the doses of administration were adjusted according to the body weights. 1. 10% (v/v) glacial acetic acid solution (pH 2.8). 2. 0.303 mol/L glycine-glacial acetic acid buffer solution (pH 3.0): 22.72 g of glycine was weighed and diluted with 10% glacial acetic acid solution to 1000 ml, to which 100 mg of NaN3 was added. The buffer solution can be kept for one year at room temperature after sealed. 3. Bromophenol blue (1.924 mmol/L) stock solution: 257.36 mg of BPB was precisely weighed and dissolved to 200 ml with absolute ethanol. The stock solution can be kept for one year in a refrigerator at 4° C. 4. Bromophenol blue (0.231 mmol/L) developing agent: to 60 ml of BPB stock solution, 2.5 ml Triton X-100 was added, and then diluted to 500 ml with glycine-glacial acetic acid buffer solution. The developing agent can be kept for one year at room temperature after sealed. Collection and detection of samples: rats were taken out and fed in a metabolic cage at the fourth week, the eighth week, the twelfth week and the sixteenth week, respectively, and twelve-hour overnight urinary collection was performed. Urinary amounts were precisely recorded. 4 ml of urine was sampled, treated with sodium azide, and centrifuged at 2000 r/min for 10 min.

[6] = once every day, after eight weeks

Row | Structure (SMILES) | Left ventricular weight [1] | Left ventricular weight/body weight (×10^-3) [1] | Maximum intima thickness [2] | Ratio of intima to media thickness [2] | blood pressure, after treatment, eighth week [3] | blood pressure, after treatment, fifth week [3] | blood pressure, after treatment, first week [3] | blood pressure, after treatment, third week [3] | blood pressure, before treatment [3] | FBG, before treatment ([4]; before treatment) | FINS, before treatment ([4]; before treatment) | Fg, before treatment ([4]; before treatment) | HbAlC, before treatment ([4]; before treatment) | TC/HDLC, before treatment ([4]; before treatment) | FBG, after treatment [4, 6] | FINS, after treatment [4, 6] | Fg, after treatment [4, 6] | HbAlC, after treatment [4, 6] | TC/HDLC, after treatment [4, 6] | urinary microalbumin, Absorbance A (600 nm) [5]
1 | CCc1ccc(CCOc2ccc(CC3SC(=O)NC3=O)cc2)nc1 (stereo not shown) [P group, pioglitazone] | 0.986 g | 3.30 ×10^-3 | 0.0958 mm | 1.8325 | 172 mmHg | 171 mmHg | 172 mmHg | 168 mmHg | 172 mmHg | 7.11 mmol/L | 31.5 mlU/L | 426.3 mg/dL | 6.92% | 4.25 | 6.69 mmol/L | 24.36 mlU/L | 390.8 mg/dL | 6.33% | 3.84 | 0.5714
2 | CC(C)c1nc(N(C)S(C)(=O)=O)nc(-c2ccc(F)cc2)c1/C=C/[C@@H](O)C[C@@H](O)CC(=O)O [R group, rosuvastatin calcium] | 0.960 g | 3.16 ×10^-3 | 0.1153 mm | 2.0754 | 169 mmHg | 170 mmHg | 166 mmHg | 168 mmHg | 168 mmHg |  |  |  |  |  |  |  |  |  |  | 0.5672
3 | CCCCc1nc(Cl)c(CO)n1Cc1ccc(-c2ccccc2-c2nn[nH]n2)cc1 [L group, losartan] | 0.873 g | 2.90 ×10^-3 | 0.0926 mm | 1.8055 | 156 mmHg | 155 mmHg | 168 mmHg | 162 mmHg | 171 mmHg |  |  |  |  |  |  |  |  |  |  | 0.6132
